The values below come from patent publication US7396817B2, “Biologically active peptides comprising Isoleucyl-valyl-threonyl-asparaginyl-threonyl-threonine (IVTNTT)” (CMS Peptides Patent Holding Company Limited, priority 2003, dated 2008).

Marks after values point to notes of the source that are not given here. No end group written: not given here.

For data set [1], the system named is HBeAg. The following applies: at 400 μg/ml, day 8, 2.2.15 cell supernatant. The procedure: (§1) a. Inhibitory effect of CMS017 on HBsAg and HBeAg at maximum non-toxic concentration in vitro 2.2.15 cells, growing at logarithmic phase, were harvested and re-suspended in MEM culture medium (containing 10% calf serum, […], and 100 U/ml streptomycin) as a 2×10^6/ml cell suspension. The suspension was inoculated into a 24-well cell culture plate with 1.5 ml per well, and incubated at 37° C., 5% CO2 for 48 hours. The test substance CMS017 was diluted and added to the 2.2.15 cultures to final concentrations of 0, 50, 100, 200, 400, 800 μg/ml, with 3 parallel samples per concentration. The cells were then incubated at 37° C., 5% CO2. The supernatant was refreshed on days 3 and 6. The cytotoxicity of CMS017 on 2.2.15 cell cultures was then observed with MTT staining on day 8, and the maximum non-toxic concentration of CMS017 was determined.
(§2) The preparation and incubation of cell suspensions were repeated as above with the determined maximum non-toxic concentration of CMS017, and with parallel negative and positive controls (lamivudine with the same concentration as CMS017 was used as the positive control). On the 8th day, the titers of HBsAg and HBeAg in the cell culture supernatants were determined by ELISA^[1,2], using conditions described by the kit supplier. The inhibition percentage of each test substance was calculated as shown below. Inhibitory percentage (%)=(blank control−sample)/blank control×100 Cell survival percentage (%)=sample (A595−A650)/blank control (A595−A650)×100

Data set [2] has as its system HBsAg. The settings on record: at 400 μg/ml, day 8, 2.2.15 cell supernatant. The procedure:
as §1, §2

The test system of data set [3] is T lymphocyte transformation. Put plainly: ConA-induced T lymphocyte transformation of spleen cells from treated mice (MTT). The format is in vivo, BALB/c mice. The settings on record: for stimulation index (X ± SD): BALB/c mice, spleen cells + ConA. The procedure: The day after the last test substance administration, the mice were sacrificed by cervical dislocation. The spleen was isolated aseptically and manually dispersed in cold D-Hank's solution using an injection needle. The dispersed cell suspension was further sieved through a 100 gauge 150 μm diameter stainless steel sieve. After centrifugation at 200 g for 10 minutes, the supernatant was discarded. […] The suspended cells were collected by centrifugation at 150 g for 10 minutes. […] The cells were then pelleted by centrifugation at 150 g for 10 minutes. […] The incubation was continued for 4 hours.

Data set [4] deals with hepG 2 2.2.15 cell line. In words: Cytotoxicity of CMS017 on 2.2.15 cell cultures, MTT staining (maximum non-toxic concentration). The format is cell-based. The following applies: 2.2.15 cells, MTT staining on day 8. The procedure:
as §1

Data set [5] in a line: Cytotoxicity (cell survival, TC50) in the HBV-DNA experiment. The class given is cell-based. The settings on record: human, HepG2 2.2.15 cells, day 8, concentration at which cell survival is 50% of control. The procedure:
(§3) Cell suspensions were prepared and incubated as described in Method 1 above. […] The culture media, with added test substance, were exchanged on days 3 and 6. On the 8th day, the supernatants of the cell cultures were harvested for the determination of HBV-DNA concentrations by fluorescent quantitative PCR^[3,4], using the method described by the kit supplier. The cultured cells were taken for analysis of the cytotoxicity of each test substance. The inhibitory percentage of the drug was calculated in the following manner: Inhibitory percentage (%)=(blank control−sample)/blank control×100 Cell survival percentage (%)=sample (A595−A650)/blank control (A595−A650)×100
(§4) TC50 was defined as the test substance concentration at which the percentage of surviving cells in the test group is 50% of that of the control group. IC50 was the test substance concentration at which the percentage of reduction of HBV-DNA concentration is 50% compared to control. These were determined by plotting the corresponding percentage against the test substance concentrations. The selection index (SI) was calculated as TC50/IC50. The bigger the value of SI, the higher the inhibition activity of test substance is and the less cytotoxic it is.

The subject of data set [6] is HBV-DNA. Put plainly: Inhibition of supernatant HBV-DNA in 2.2.15 cells (fluorescent quantitative PCR). The settings on record: for IC50 (HBV-DNA): 2.2.15 cell supernatant; for IC50 (HBV-DNA) / inhibitory percentage for supernatant HBV-DNA: day 8; for inhibitory percentage for supernatant HBV-DNA: at the concentration of 160 μg/ml. The procedure:
as §3, §4

As for `Nc1ccn([C@@H]2CS[C@H](CO)O2)c(=O)n1` [Lamivudine, lamivudine, reference compound], in data set [1], the “Inhibition ratio of HBeAg” value turned out to be 35.4%*. Besides, in data set [2], the “Inhibition ratio of HBsAg” value came to 29.6%*.
As for “IVTNTT [CMS017, L-Isoleucyl-L-valyl-L-threonyl-L-asparaginyl-L-threonyl-L-threonine]”, the “stimulation index (X ± SD)” value in data set [3] (50 μg/kg/day i.p. for 28 days) stood at 2.82 ± 0.41. The “effect on T lymphocyte transformation (in words)” value in data set [3] (50 μg/kg/day, compared with the saline control group (P<0.05)) is reported as “enhance T lymphocyte transformation”. The “stimulation index (X ± SD)” value in data set [3] (200 μg/kg/day i.p. for 28 days) came to 2.65 ± 0.51. The same compound gave a maximum non-toxic concentration in data set [4] of 400 µg/mL. In addition, the CC50 (as a rule, the concentration that lowers cell viability or growth by half) at 192 h in data set [5] worked out at 1330 µg/mL. Further, in data set [6], the “IC50 (HBV-DNA)” value came to 2.3 µg/mL; the “SI (selection index, TC50/IC50)” value was found to be 577.7; the “inhibitory percentage for supernatant HBV-DNA” value was found to be 90.8%. For the same compound, the “Inhibition ratio of HBeAg” value in data set [1] came to 62.2%*. For the same compound, the “Inhibition ratio of HBsAg” value in data set [2] is on record as 68.6%*.
As for “vidarabine monophosphate [Ara-AMP, reference compound]”, in data set [6], the “IC50 (HBV-DNA)” value is 11.4 µg/mL; the “SI (selection index, TC50/IC50)” value was determined as 5.6; the “inhibitory percentage for supernatant HBV-DNA” value is reported as 89.1%*.
